The text below walks through data of patent US6395748B2, “Tropane-derivatives, their preparation and use” (NeuroSearch A/S, priority 1996, dated 2002).

The target of one assay is T1, dopamine transporter (Rattus norvegicus, UniProt P23977).
T1 construct: Corpi striati from male Wistar rats (150-200 g) are homogenized; from tissue; host or cells: rat striatal synaptosomes (P2 pellet)
Kind of assay: In vitro inhibition of 3H-dopamine (3H-DA) uptake in striatal synaptosomes. In kind it is biochemical. The procedure:
Monoamine oxidase activity will be inhibited in the presence of pargyline. The homogenate is centrifuged at 1000×g for 10 min. The resulting supernatant is then centrifuged at 27,000×g for 50 min and the supernatant is discarded.
After incubation the samples are poured directly onto Whatman GF/C glass fibre filters under suction. The filters are then washed three times with 5 ml of ice-cold 0.9% (w/v) NaCl solution. The amount of radioactivity on the filters is determined by conventional liquid scintillation counting. Specific uptake is calculated as the difference between total uptake and non-specific uptake.

For the next assay, the target named is T2, serotonin transporter (Rattus norvegicus, UniProt P31652).
T2 construct: Cerebral cortices from male Wistar rats (150-200 g) are homogenized; from tissue; host or cells: rat cerebral cortex synaptosomes (P2 pellet)
Nature of the assay: In vitro inhibition of 3H-5-hydroxytryptamine (3H-5-HT, serotonin) uptake in cortical synaptosomes. In kind it is biochemical. How it is done: Tissue preparation: Preparations are performed at 0-4° C. unless otherwise indicated. […] Monoamine oxidase activity will be inhibited in the presence of pargyline. The homogenate is centrifuged at 1000×g for 10 min.
Non-specific uptake is determined using citalopram (1 μM, final concentration). After incubation the samples are poured directly onto Whatman GF/C glass fibre filters under suction. The filters are then washed three times with 5 ml of ice-cold 0.9% (w/v) NaCl solution. The amount of radioactivity on the filters is determined by conventional liquid scintillation counting. Specific uptake is calculated as the difference between total uptake and non-specific uptake.

pIC50: −log10 of the molar value.

T2 sequence (P31652 whole entry): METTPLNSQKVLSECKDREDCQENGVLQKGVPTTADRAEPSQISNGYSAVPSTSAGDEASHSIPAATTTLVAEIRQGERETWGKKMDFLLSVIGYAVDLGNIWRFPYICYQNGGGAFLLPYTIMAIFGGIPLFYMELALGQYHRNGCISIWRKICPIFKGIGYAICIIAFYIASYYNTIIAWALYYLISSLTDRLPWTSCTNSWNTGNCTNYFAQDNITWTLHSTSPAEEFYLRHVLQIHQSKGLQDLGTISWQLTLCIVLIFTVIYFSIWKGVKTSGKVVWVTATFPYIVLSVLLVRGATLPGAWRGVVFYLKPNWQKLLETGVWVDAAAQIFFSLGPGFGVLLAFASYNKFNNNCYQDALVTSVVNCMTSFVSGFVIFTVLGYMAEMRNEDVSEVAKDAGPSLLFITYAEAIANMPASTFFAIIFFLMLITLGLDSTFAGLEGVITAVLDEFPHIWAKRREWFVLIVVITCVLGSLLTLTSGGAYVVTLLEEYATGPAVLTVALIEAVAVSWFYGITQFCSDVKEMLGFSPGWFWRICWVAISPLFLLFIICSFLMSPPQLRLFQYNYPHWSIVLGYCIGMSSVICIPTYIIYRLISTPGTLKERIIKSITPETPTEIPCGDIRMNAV
T1 sequence (P23977 whole entry): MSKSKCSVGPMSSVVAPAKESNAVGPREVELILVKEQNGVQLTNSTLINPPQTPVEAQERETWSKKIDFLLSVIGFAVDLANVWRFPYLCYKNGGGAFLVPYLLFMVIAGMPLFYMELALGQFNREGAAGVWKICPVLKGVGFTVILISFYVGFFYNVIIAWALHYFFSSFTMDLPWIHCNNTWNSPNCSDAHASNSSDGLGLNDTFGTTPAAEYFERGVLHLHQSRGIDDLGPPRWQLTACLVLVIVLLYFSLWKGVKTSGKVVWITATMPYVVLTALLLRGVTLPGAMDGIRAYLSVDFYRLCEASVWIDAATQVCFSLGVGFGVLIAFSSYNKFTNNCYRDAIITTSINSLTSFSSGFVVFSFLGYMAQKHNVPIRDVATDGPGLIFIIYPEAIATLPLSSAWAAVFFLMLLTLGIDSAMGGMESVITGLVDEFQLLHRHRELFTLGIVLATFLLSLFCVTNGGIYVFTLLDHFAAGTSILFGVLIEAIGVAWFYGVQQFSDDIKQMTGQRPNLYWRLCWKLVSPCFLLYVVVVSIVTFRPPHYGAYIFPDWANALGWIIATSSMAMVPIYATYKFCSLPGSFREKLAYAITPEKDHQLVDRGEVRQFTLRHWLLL

As for `CN1[C@H]2CC[C@@H]1[C@H](CSc1ccccc1)[C@@H](c1ccc(Cl)c(Cl)c1)C2` [(1R,2R,3S)-2-phenylthiomethyl-3-(3,4-dichlorophenyl)-tropane], the pIC50 – broadly, the IC50 on a negative log10 scale, so that one unit is a factor of ten – against dopamine transporter is 8.37; against serotonin transporter it was 8.04.
